In patent US11623931B2, “Bicyclic compounds for diagnosis and therapy” (AC IMMUNE SA, priority 2016, dated 2023):

Columns and labels:
[1] = test system: Aβ plaques on PD sections with mixed pathology; test: Assay 1 (fluorescence based assay): direct staining of PD brain sections with mixed pathology; format: binding, human; set-up: key: − (No); +/− (very weak); + (weak); ++ (good); +++ (strong); conditions: staining intensity; compound 100 μM, frozen amygdala sections, PD Braak stage V-VI with aSyn aggregates and Aβ plaques
Experimental: (§1) Direct Staining of Compounds of this Invention to Human Parkinson's Disease Brain Sections
(§2) 20 μm frozen sections from amygdala were purchased from an external provider (Tissue Solutions Ltd.). Donors were diagnosed with PD, Braak stage V-VI (Braak et al., Neurobiol. Aging, 2003, 24, 197-211) and thus with confirmed aSyn pathology. PD donors, Braak stage V-VI with mixed pathology, containing aSyn aggregates as well as Aβ plaques, were also used in this assay. Sections were kept at −80° C. until start of the experiment.
(§3) Brain sections were encircled with pap pen liquid blocker to reduce the volume of solution for the different incubations. Sections were fixed for 15 min at 4° C. with 4% paraformaldehyde and washed three times for 5 minutes with PBS (phosphate buffered saline) at room temperature. Test compounds were incubated on the sections at 100 μM in 50% ethanol in water for 30 min at room temperature, followed by three washes of 5 minutes with PBS. Sections were then saturated and permeabilized in blocking buffer (PBS, 10% NGS, 0.25% Triton) for 1 hour at room temperature and then incubated for 2 hours at room temperature with the primary antibodies against aSyn: aSyn-211 (SantaCruz Biotechnology sc-12767) or aSyn-pS129 (Abcam AB51253), and primary antibody against AR, 4G8, (Covance, SIG-39220). All primary antibodies diluted 1/250 in PBS, 5% NGS, 0.25% Triton. After three washes in PBS, the sections were incubated for 30 minutes at room temperature with a secondary anti-mouse antibody labeled with AlexaFluor555 (Invitrogen A21422) or anti-rabbit antibody labeled with AlexaFluor555 (Invitrogen A21428) and further washed three times in PBS. To reduce auto-fluorescence of the tissue, the sections were incubated in a solution of 0.1% Sudan Black (Sigma 199664) in 70% ethanol for 15 min at room temperature, followed by four washes with PBS and mounted under cover slips using ProLong Gold Antifade reagent (Invitrogen P36930).
(§4) Sections were analyzed on the Nikon Eclipse Ti microscope to detect staining and imaged using Nikon DS-Fi2 camera and NIS-Element AR4.13.1 software.

[2] = biological target: T1, aSyn aggregates on PD sections (Homo sapiens, UniProt P37840); test: Assay 1 (fluorescence based assay): direct staining of human Parkinson's disease brain sections; format: binding; set-up: key: − (No); +/− (very weak); + (weak); ++ (good); +++ (strong); conditions: staining intensity; compound 100 μM, frozen amygdala sections, PD Braak stage V-VI
T1 construct: 20 μm frozen sections from amygdala were purchased from an external provider (Tissue Solutions Ltd.); tissue Tissue Solutions Ltd; host or cells: human PD amygdala, frozen sections, Braak stage V-VI
Excerpt: Assay 1 (Fluorescence Based Assay):
as §1, §2, §3, §4

Row | SMILES | Staining of Aβ plaques on PD sections with mixed pathology [1] | Staining of aSyn aggregates on PD sections [2]
1 | Fc1ncccc1-c1ccc2sc(-c3ccc(N4CCCC4)nc3)nc2n1 [Example 108] | +/− | ++
2 | O=C1c2sc(-c3ccc(N4CC[C@@H](F)C4)nc3)nc2CCN1c1cccnc1 [Example 129] | +++ | ++
3 | F[C@@H]1CCCN(c2ccc(-c3nc4ncc(-c5cccnc5)cc4s3)cn2)C1 [Example 100] | ++ | ++
4 | CNc1ccc(-c2cc3ccc(-c4ccc(N5CC[C@H](F)C5)nc4)nc3s2)cc1F [Example 113] | ++ | +
5 | Fc1nc(N2CCCC2)ccc1-c1nc2nc(-c3cccnc3)ccc2s1 [Example 87] | − | ++
6 | Fc1nc(N2CCCC2)ccc1-c1ccc2cc(-c3cncnc3)sc2n1 [Example 110] | +++ | +
7 | F[C@@H]1CCN(c2ccc(-c3nc4nc(-c5cccnc5)ccc4s3)cn2)C1 [Example 90] | − | ++
8 | O=C1c2sc(-c3ccc(N4CC[C@H](F)C4)nc3)nc2CCN1c1cccnc1 [Example 130] | +++ | ++
9 | F[C@H]1CCCN(c2ccc(-c3nc4nc(-c5cncs5)ccc4s3)cn2)C1 [Example 98] | +/− | +
10 | Fc1nc(N2CCCC2)ccc1-c1nc2nc(-c3cc[nH]c3)ccc2s1 [Example 96] | +/− | ++
11 | F[C@H]1CCCN(c2ccc(-c3nc4nc(-c5cn[nH]c5)ccc4s3)cn2)C1 [Example 83] | − | +++
12 | Fc1nc(N2CCCC2)ccc1-c1nc2nc(-c3cn[nH]c3)ccc2s1 [Example 85] | − | +++
13 | F[C@H]1CCN(c2ccc(-c3nc4nc(-c5cccnc5)ccc4s3)cn2)C1 [Example 91] | − | ++
14 | F[C@@H]1CCCN(c2ccc(-c3nc4nc(-c5cncs5)ccc4s3)cn2)C1 [Example 99] | +/− | ++
15 | O=C1NCCc2nc(-c3ccc(N4CC[C@H](F)C4)nc3)sc21 [Example 118] | + | +
16 | Cn1cncc1-c1ccc2sc(-c3ccc(N4CCCC4)nc3F)nc2n1 [Example 94] | − | +++
17 | F[C@@H]1CCN(c2ccc(-c3ccc4cc(-c5cn[nH]c5)sc4n3)cn2)C1 [Example 114] | +++ | +++
18 | Cn1cc(-c2ccc3sc(-c4ccc(N5CCC[C@H](F)C5)nc4)nc3n2)cn1 [Example 84] | +/− | ++
19 | Cc1n[nH]c(C)c1-c1ccc2sc(-c3ccc(N4CCCC4)nc3F)nc2n1 [Example 88] | − | +++
